Measurements: US10774052B2, “Heteroaryl compounds and uses thereof” (Celgene CAR LLC, priority 2013, dated 2020)

Key:
[1] = tested on: pFGFR4 in MDA-MB-453 cells; test: FGFR4 signaling, pFGFR4 (MDA); Western blot (Method A), MSD (Method B), ELISA (Method C); type: cell-based; conditions: Homo sapiens, Method B (MSD) for signaling EC50 determination
Description: The MDA-MB-453 protein concentrations were determined by a BCA Assay (Pierce, Rockford, Ill.). A sample of 50-100 μg of each lysate was separated by a 4-12% gradient (SDS-PAGE (Invitrogen)), transferred to a nitrocellulose membrane (Biorad, Hercules, Calif.), and probed with specific antibodies. Phospho-protein signals were quantitated using Odyssey Infrared Imaging (Li-Cor Biosciences).
To assess phospho-FGFR signaling, the blots were probed with anti-Phospho-FGFR (Y653/Y654) and total anti-FGFR antibodies. The phospho-FGFR signal was normalized to total FGFR expression for each sample.

pFGFR4 in Huh7 cells = test: FGFR4 signaling, pFGFR4 (Huh); MSD (Method B); type: cell-based; conditions: Homo sapiens, Huh-7; Huh7 cells; read-out: Signaling EC50 (nM) pFGFR4 (Huh)

| Compound | EC50 ([1]; MDA-MB-453 cells) [nM] | EC50 (pFGFR4 in Huh7 cells) [nM] | EC50 ([1]; MDA-MB-453, MDA-MB-453 cells) [nM] |
| --- | --- | --- | --- |
| C=CC(=O)NC1CCCCC1Nc1ncc2c(n1)N(CC#N)C(=O)N(c1c(Cl)c(OC)cc(OC)c1Cl)C2 (racemic) [Compound I-47] | 101 to 500 | 501 to 999 |  |
| C=CC(=O)NC1CCCCC1Nc1ncc2c(n1)N(C1CC1)C(=O)N(c1c(Cl)c(OC)cc(OC)c1Cl)C2 (racemic) [Compound I-68] |  | 501 to 999 | 101 to 500 |
| C=CC(=O)NC1CCCCC1Nc1ncc2c(n1)N(C)C(=O)N(c1cc(OC)cc(OC)c1Cl)C2 (racemic) [Compound I-76] |  | > 1000 | 501 to 999 |
| C=CC(=O)NC1CCCCC1Nc1ncc2c(n1)N(CC(F)F)C(=O)N(c1c(Cl)c(OC)cc(OC)c1Cl)C2 (racemic) [Compound I-105] |  | 101 to 500 | 101 to 500 |
| C=CC(=O)NC1CCCCC1Nc1ncc2c(n1)N(CCF)C(=O)N(c1c(Cl)c(OC)cc(OC)c1Cl)C2 (racemic) [Compound I-106] |  | 101 to 500 | 101 to 500 |
| C=CC(=O)NC1CCCCC1Nc1ncc2c(n1)N(CC(F)F)C(=O)N(c1cc(OC)cc(OC)c1Cl)C2 (racemic) [Compound I-107] |  | > 1000 | 501 to 999 |
| C=CC(=O)NC1CCCCC1Nc1ncc2c(n1)N(CCF)C(=O)N(c1cc(OC)cc(OC)c1Cl)C2 (racemic) [Compound I-111] |  | > 1000 | 501 to 999 |
| C=CC(=O)NC1CN(C)CC1Nc1ncc2c(n1)N(C)C(=O)N(c1c(Cl)c(OC)cc(OC)c1Cl)C2 (racemic) [Compound I-138] |  | 101 to 500 | 101 to 500 |
| C=CC(=O)Nc1cc(N(C)CCOC)ccc1Nc1ncc2c(n1)N(Cc1ccccc1)C(=O)N(c1cc(OC)cc(OC)c1)C2 [Compound I-13] |  | 101 to 500 | 101 to 500 |
| C=CC(=O)Nc1ccccc1Nc1ncc2c(n1)N(CC(O)CO)C(=O)N(c1cc(OC)cc(OC)c1)C2 (stereo not drawn) [Compound I-33] | 101 to 500 | > 1000 |  |
| C=CC(=O)Nc1ccccc1Nc1ncc2c(n1)N(C1CCCNC1)C(=O)N(c1cc(OC)cc(OC)c1)C2 (stereo not drawn) [Compound I-43] | 501 to 999 | > 1000 |  |
| C=CC(=O)Nc1ccc(C(F)(F)F)cc1Nc1ncc2c(n1)N(C)C(=O)N(c1cc(OC)cc(OC)c1)C2 [Compound I-50] | 101 to 500 | 101 to 500 |  |
| C=CC(=O)Nc1ccccc1Nc1ncc2c(n1)N(CCOC)C(=O)N(c1cc(OC)cc(OC)c1)C2 [Compound I-59] | 101 to 500 | 101 to 500 |  |
| C=CC(=O)Nc1ccccc1Nc1ncc2c(n1)N(Cc1cscn1)C(=O)N(c1cc(OC)cc(OC)c1)C2 [Compound I-64] | 101 to 500 | 101 to 500 |  |
| C=CC(=O)Nc1ccccc1Nc1ncc2c(n1)N(C)C(=O)N(c1c(Cl)cccc1Cl)C2 [Compound I-83] | 101 to 500 | 101 to 500 |  |
| C=CC(=O)Nc1ccccc1Nc1ncc2c(n1)N(C1COC1)C(=O)N(c1cc(OC)cc(OC)c1)C2 [Compound I-88] | 101 to 500 | 101 to 500 |  |
| C=CC(=O)Nc1ccccc1Nc1ncc2c(n1)N(Cc1cccc(C(N)=O)c1)C(=O)N(c1cc(OC)cc(OC)c1)C2 [Compound I-97] | 101 to 500 | 101 to 500 |  |
| C=CC(=O)Nc1ccccc1Nc1ncc2c(n1)N(CC(F)F)C(=O)N(c1cc(OC)cc(OC)c1)C2 [Compound I-99] | 101 to 500 | 101 to 500 |  |
| C=CC(=O)NC1CCCCC1Nc1ncc2c(n1)N(CC(F)F)C(=O)N(c1c(F)c(OC)cc(OC)c1F)C2 (stereo not drawn) [Compound I-115] | 101 to 500 | 101 to 500 |  |
| C=CC(=O)NC1COCC1Nc1ncc2c(n1)N(C)C(=O)N(c1cc(C(=O)Nc3cccc(C(C)(C)C#N)c3)ccc1Cl)C2 (stereo not drawn) [Compound I-246] |  | 101 to 500 |  |
| C=CC(=O)NC1COCC1Nc1ncc2c(n1)N(C)C(=O)N(c1cc(C(=O)Nc3cccc(C(C)(C)C)c3)ccc1Cl)C2 (stereo not drawn) [Compound I-247] |  | < 100 |  |

Further lines, with some results ahead:

| EC50 ([1]; MDA-MB-453 cells) [nM] | EC50 (pFGFR4 in Huh7 cells) [nM] | Compound | EC50 ([1]; MDA-MB-453, MDA-MB-453 cells) [nM] |
| --- | --- | --- | --- |
| 101 to 500 | 101 to 500 | C=CC(=O)NC1CCCCC1Nc1ncc2c(n1)N(CCOC)C(=O)N(c1c(Cl)c(OC)cc(OC)c1Cl)C2 (racemic) [Compound I-61] |  |
| 101 to 500 | < 100 | C=CC(=O)NC1CCCCC1Nc1ncc2c(n1)N(Cc1ccccc1)C(=O)N(c1c(Cl)c(OC)cc(OC)c1Cl)C2 (racemic) [Compound I-63] |  |
| 101 to 500 | 101 to 500 | C=CC(=O)NC1CC=CCC1Nc1ncc2c(n1)N(C)C(=O)N(c1c(Cl)c(OC)cc(OC)c1Cl)C2 (racemic) [Compound I-113] |  |
| 101 to 500 | 101 to 500 | C=CC(=O)NC1CN(C(C)=O)CC1Nc1ncc2c(n1)N(C)C(=O)N(c1c(Cl)c(OC)cc(OC)c1Cl)C2 (racemic) [Compound I-139] |  |
| 101 to 500 | 101 to 500 | C=CC(=O)Nc1ccccc1Nc1ncc2c(n1)N(C)C(=O)N(c1cc(OC)cc(OC)c1)C2 [Compound I-5] |  |
| < 100 | 101 to 500 | C=CC(=O)Nc1cc(N2CCN(CCOC)CC2)ccc1Nc1ncc2c(n1)N(Cc1cccc(NC(=O)CC)c1)C(=O)N(c1cc(OC)cc(OC)c1)C2 [Compound I-9] |  |
| < 100 | < 100 | C=CC(=O)Nc1cc(N(C)CCOC)ccc1Nc1ncc2c(n1)N(C)C(=O)N(c1cc(OC)cc(OC)c1)C2 [Compound I-21] |  |
| < 100 | 101 to 500 | C=CC(=O)Nc1ccccc1Nc1ncc2c(n1)N(Cc1ccc(F)cc1)C(=O)N(c1c(Cl)c(OC)cc(OC)c1Cl)C2 [Compound I-25] |  |
| < 100 | < 100 | C=CC(=O)Nc1ccccc1Nc1ncc2c(n1)N(Cc1cccc(N)c1)C(=O)N(c1c(Cl)c(OC)cc(OC)c1Cl)C2 [Compound I-26] |  |
| 101 to 500 | 101 to 500 | C=CC(=O)Nc1ccccc1Nc1ncc2c(n1)N(C1CCCN(C(=O)OC(C)(C)C)C1)C(=O)N(c1cc(OC)cc(OC)c1)C2 (stereo not drawn) [Compound I-36] |  |
| 101 to 500 | 101 to 500 | C=CC(=O)Nc1cc(C)ccc1Nc1ncc2c(n1)N(C)C(=O)N(c1cc(OC)cc(OC)c1)C2 [Compound I-41] |  |
| 101 to 500 | < 100 | C=CC(=O)Nc1cc(C(F)(F)F)ccc1Nc1ncc2c(n1)N(C)C(=O)N(c1cc(OC)cc(OC)c1)C2 [Compound I-42] |  |
| < 100 | < 100 | C=CC(=O)Nc1ccccc1Nc1ncc2c(n1)N(Cc1cccnc1)C(=O)N(c1cc(OC)cc(OC)c1)C2 [Compound I-44] |  |
| 101 to 500 | 101 to 500 | C=CC(=O)Nc1ccccc1Nc1ncc2c(n1)N(CC#N)C(=O)N(c1cc(OC)cc(OC)c1)C2 [Compound I-48] |  |
| < 100 | < 100 | C=CC(=O)Nc1ccccc1Nc1ncc2c(n1)N(Cc1ccnc(N)c1)C(=O)N(c1cc(OC)cc(OC)c1)C2 [Compound I-87] |  |
| < 100 | < 100 | C=CC(=O)Nc1ccccc1Nc1ncc2c(n1)N(CC1CC1)C(=O)N(c1cc(OC)cc(OC)c1)C2 [Compound I-98] |  |
| < 100 | < 100 | C=CC(=O)Nc1ccccc1Nc1ncc2c(n1)N(CC1CC1)C(=O)N(c1cc(OC)cc(OC)c1Cl)C2 [Compound I-100] |  |
| 101 to 500 | < 100 | C=CC(=O)Nc1ccccc1Nc1ncc2c(n1)N(CCF)C(=O)N(c1cc(OC)cc(OC)c1)C2 [Compound I-102] |  |
| < 100 | < 100 | C=CC(=O)Nc1ccccc1Nc1ncc2c(n1)N(CC(F)F)C(=O)N(c1cc(OC)cc(OC)c1Cl)C2 [Compound I-104] |  |
| < 100 | < 100 | C=CC(=O)Nc1ccccc1Nc1ncc2c(n1)N(CCF)C(=O)N(c1cc(OC)cc(OC)c1Cl)C2 [Compound I-110] |  |
| < 100 | < 100 | C=CC(=O)Nc1ccccc1Nc1ncc2c(n1)N(CC(F)F)C(=O)N(c1c(F)c(OC)cc(OC)c1F)C2 [Compound I-116] |  |
| < 100 | < 100 | C=CC(=O)Nc1nn(C)cc1Nc1ncc2c(n1)N(C)C(=O)N(c1c(Cl)c(OC)cc(OC)c1Cl)C2 [Compound I-117] |  |
| < 100 | < 100 | C=CC(=O)Nc1ccccc1Nc1ncc2c(n1)N(Cc1cn[nH]c1)C(=O)N(c1cc(OC)cc(OC)c1)C2 [Compound I-121] |  |
| < 100 | < 100 | C=CC(=O)Nc1ccccc1Nc1ncc2c(n1)N(Cc1cn[nH]c1)C(=O)N(c1c(Cl)c(OC)cc(OC)c1Cl)C2 [Compound I-124] |  |
|  | < 100 | C=CC(=O)Nc1ccccc1Nc1ncc2cc(-c3c(Cl)c(OC)cc(OC)c3Cl)c(=O)n(C)c2n1 [Compound I-244] |  |
|  | < 100 | C=CC(=O)Nc1cc(F)ccc1Nc1ncc2cc(-c3c(Cl)c(OC)cc(OC)c3Cl)c(=O)n(C)c2n1 [Compound I-245] |  |
